Laboratory results taken from patent EP0617001B1, “Phenoxyphenylacetic acid derivatives” (Merck & Co., Inc., priority 1993, dated 1994).
Structures can show the parent of a compound that is named as a salt.

What was measured:
Anesthetized Male Dog [1] = assay: Phenylephrine (PE)-induced changes in DBP and IUP in the anesthetized male dog (specificity for ET-1 blockade); format: in vivo, mongrel dog
Experimental: On separate days, two fasted male mongrel dogs (HRP, Inc.) weighing 11.0 and 12.4 kg, were anesthetized with Sodium Pentobarbital (Steris Laboratories, Inc.) at 35 mg/kg (i.v.) to effect, followed by 4 mg/kg/hr (i.v.) infusion. A cuffed endotracheal tube was inserted and each animal was ventilated with room air using a positive displacement large animal ventilator (Harvard Apparatus) at a rate of 18 breaths/minute and an average tidal volume of 18 ml/kg body weight. Body temperature was maintained with a heating pad and heat lamp using a temperature controller (YSI) and esophageal probe. Two catheters (PE 260) were placed in the aorta via the femoral arteries (one in each artery) for administration of endothelin or phenylephrine and for continuous direct monitoring of blood pressure and heart rate using a Statham blood pressure transducer (Spectramed) and a computer system (Modular Instruments, Inc.). […] A supra-pubic incision approximately one-half inch lateral to the penis was made to expose the ureters, urinary bladder, prostate, and urethra. The dome of the bladder was retracted to facilitate dissection of the ureters. The ureters were cannulated with PE 90 and tied off to the bladder. Umbilical tape was passed beneath the urethra at the bladder neck and another piece of tape was placed approximately 1-2 cm. distal to the prostate. The bladder dome was incised and a Micro-tip® catheter transducer (Millar Instruments, Inc.) was advanced into the urethra. The neck of the bladder was ligated with the umbilical tape to hold the transducer. The bladder incision was sutured wit 3-0 silk (purse string suture). The transducer was withdrawn until it was positioned in the prostatic urethra. The position of the Micro-tip® catheter was verified by gently squeezing the prostate and noting the large change in urethral pressure prior to ligating the distal urethra.
Phenylephrine (PB) (10 µg/kg, intra-arterial) was administered and pressor effects on diastolic blood pressure (DBP) and intra-urethral pressure (IUP) were noted. When blood pressure returned to baseline, endothelin-1 (ET-1) (1 nmole/kg, intra-arterial) was administered. […] Ten to fifteen minutes later when blood pressure had stabilized, ET-1 was administered again, and inhibition of ET-1 induced effects were noted. PE was administered at the end of the experiment to verify specificity for ET-1 blockade. The dogs were euthanized with an overdose of pentobarbital followed by saturated KCl.
(§1) All drugs were dissolved in isotonic saline solution.

Anesthetized Male Dog [2] = assay: ET-1 induced changes in diastolic blood pressure (DBP) and intra-urethral pressure (IUP) in the anesthetized male dog; format: in vivo, mongrel dog; details: for % INHIBITION of ET-1 induced change in DBP, DEPRESSOR / % INHIBITION of ET-1 induced change in DBP, PRESSOR / % INHIBITION of ET-1 induced change in IUP, PRESSOR: 30 mg/kg intra-venous
Experimental: Methodology for determining whether an ET-1 selective antagonist could inhibit the ET-1 mediated prostatic urethral contractions in a mongrel dog model:
On separate days, two fasted male mongrel dogs (HRP, Inc.) weighing 11.0 and 12.4 kg, were anesthetized with Sodium Pentobarbital (Steris Laboratories, Inc.) at 35 mg/kg (i.v.) to effect, followed by 4 mg/kg/hr (i.v.) infusion. A cuffed endotracheal tube was inserted and each animal was ventilated with room air using a positive displacement large animal ventilator (Harvard Apparatus) at a rate of 18 breaths/minute and an average tidal volume of 18 ml/kg body weight. Body temperature was maintained with a heating pad and heat lamp using a temperature controller (YSI) and esophageal probe. Two catheters (PE 260) were placed in the aorta via the femoral arteries (one in each artery) for administration of endothelin or phenylephrine and for continuous direct monitoring of blood pressure and heart rate using a Statham blood pressure transducer (Spectramed) and a computer system (Modular Instruments, Inc.). Two other catheters (PE 260) were placed in the vena cava via the femoral veins (one catheter in each vein) for administration of pentobarbital and N-(4-iso-propylbenzenesulfonyl)-α-(4-carboxy-2-n-propylphenoxy)-3,4-methylenedioxyphenylacetamide dipotassium salt [Example 42]. A supra-pubic incision approximately one-half inch lateral to the penis was made to expose the ureters, urinary bladder, prostate, and urethra. The dome of the bladder was retracted to facilitate dissection of the ureters. The ureters were cannulated with PE 90 and tied off to the bladder. Umbilical tape was passed beneath the urethra at the bladder neck and another piece of tape was placed approximately 1-2 cm. distal to the prostate. The bladder dome was incised and a Micro-tip® catheter transducer (Millar Instruments, Inc.) was advanced into the urethra. The neck of the bladder was ligated with the umbilical tape to hold the transducer. The bladder incision was sutured wit 3-0 silk (purse string suture). The transducer was withdrawn until it was positioned in the prostatic urethra. The position of the Micro-tip® catheter was verified by gently squeezing the prostate and noting the large change in urethral pressure prior to ligating the distal urethra.
Phenylephrine (PB) (10 µg/kg, intra-arterial) was administered and pressor effects on diastolic blood pressure (DBP) and intra-urethral pressure (IUP) were noted. When blood pressure returned to baseline, endothelin-1 (ET-1) (1 nmole/kg, intra-arterial) was administered. Changes in DBP and IUP were monitored for one hour and an ET-1 selective endothelin antagonist, such as the compound of Example 42, N-(4-iso-propylbenzene-sulfonyl)-α-(4-carboxy-2-n-propylphenoxy)-3,4-methylenedioxyphenyl-acetamide dipotassium salt (30 mg/kg, intra-venous) was administered. Ten to fifteen minutes later when blood pressure had stabilized, ET-1 was administered again, and inhibition of ET-1 induced effects were noted. PE was administered at the end of the experiment to verify specificity for ET-1 blockade. The dogs were euthanized with an overdose of pentobarbital followed by saturated KCl.
as §1

rat prostate = assay: In situ rat prostate: ET-1 induced contraction; format: in vivo, Sprague-Dawley rats; details: antagonist injected IA
Experimental: Male Sprague-Dawley rats (Taconic Farms) weighing 300-400 grams were anesthetized with urethane (1.75 g/kg, ip), a tracheal cannula was inserted, and the femoral artery was cannulated. Core body temperature was maintained at 37 + 0.5 °C. A 4-5 cm midline abdominal incision was made to expose the bladder and prostate. The prostate was separated from the bladder and surrounding capsule by blunt dissection with a forcep. A length of surgical silk was gently secured around the anterior tips of the prostate lobes. A second length of surgical silk attached to an atraumatic needle was passed through and tied to the base of the prostate approximately 10-12 mm posterior to the first tie. The posterior ligature was secured to an anchor post whereas the anterior ligature was connected to a Grass FT03 transducer (Grass Instruments, Quincy, MA) and maintained at a tension of 1 g. Signals from the transducer were amplified and recorded on a polygraph (Hewlett-Packard 8805B amplifiers and 7758A recorder, Palo Alto, CA). After equilibrating for approximately 15 min, the rats were administered pretreatment drugs (atropine 1 mg/kg, (+) propranolol 1 mg/kg) 10 min apart through the intra-arterial (IA) cannula. […] The response of the prostate to FT-1 was quantified by measuring the change (Δ) from baseline tension to the peak of the response during the 5-minute period after the third FT-1 injection.

[3] = Phenylephrine alone, 10 µg/kg intra-arterial, dog HG FMJC
[4] = ET-1 (i.a.) alone, 1 nmole/kg, MEAN, n=2 dogs
[5] = ET-1 (i.a.) alone, 1 nmole/kg, dog HG FMHK
[6] = ET-1 (i.a.) alone, 1 nmole/kg, dog HG FMJC
[7] = ET-1 challenge after antagonist 30 mg/kg intra-venous, MEAN, n=2 dogs
[8] = ET-1 challenge after antagonist 30 mg/kg intra-venous, dog HG FMHK
[9] = ET-1 challenge after antagonist 30 mg/kg intra-venous, dog HG FMJC
[10] = 30 mg/kg intra-venous, dog HG FMJC

CNC[C@H](O)c1cccc(O)c1 [Phenylephrine, reference compound]
INCREASE IN DBP (mmHg) (Anesthetized Male Dog [1]; [3]): 17 mmHg
INCREASE IN IUP (mmHg) (Anesthetized Male Dog [1]; [3]): 31 mmHg

Endothelin-1 [ET-1]
CHANGE IN DBP (mmHg) DEPRESSOR (Anesthetized Male Dog [2]; [4]): -13 mmHg
CHANGE IN DBP (mmHg) PRESSOR (Anesthetized Male Dog [2]; [4]): 26 mmHg
CHANGE IN IUP (mmHg) PRESSOR (Anesthetized Male Dog [2]; [4]): 15 mmHg
CHANGE IN DBP (mmHg) DEPRESSOR (Anesthetized Male Dog [2]; [5]): -15 mmHg
CHANGE IN DBP (mmHg) PRESSOR (Anesthetized Male Dog [2]; [5]): 33 mmHg
CHANGE IN IUP (mmHg) PRESSOR (Anesthetized Male Dog [2]; [5]): 11 mmHg
CHANGE IN DBP (mmHg) DEPRESSOR (Anesthetized Male Dog [2]; [6]): -10 mmHg
CHANGE IN DBP (mmHg) PRESSOR (Anesthetized Male Dog [2]; [6]): 19 mmHg
CHANGE IN IUP (mmHg) PRESSOR (Anesthetized Male Dog [2]; [6]): 18 mmHg
decrease in DBP (Anesthetized Male Dog [2]; ET-1 alone, 1 nmole/kg intra-arterial, average of both dogs): 13 mmHg

CCCc1cc(C(=O)O)ccc1OC(C(=O)NS(=O)(=O)c1ccc(C(C)C)cc1)c1ccc2c(c1)OCO2 (stereo not drawn) [Example 42, N-(4-iso-propylbenzenesulfonyl)-α-(4-carboxy-2-n-propylphenoxy)-3,4-methylenedioxyphenylacetamide dipotassium salt]
% INHIBITION of ET-1 induced change in DBP, DEPRESSOR (Anesthetized Male Dog [2]; MEAN, n=2 dogs): 69%
% INHIBITION of ET-1 induced change in DBP, PRESSOR (Anesthetized Male Dog [2]; MEAN, n=2 dogs): 76%
% INHIBITION of ET-1 induced change in IUP, PRESSOR (Anesthetized Male Dog [2]; MEAN, n=2 dogs): 93%
% INHIBITION of ET-1 induced change in DBP, DEPRESSOR (Anesthetized Male Dog [2]; dog HG FMHK): 67%
% INHIBITION of ET-1 induced change in DBP, PRESSOR (Anesthetized Male Dog [2]; dog HG FMHK): 94%
% INHIBITION of ET-1 induced change in IUP, PRESSOR (Anesthetized Male Dog [2]; dog HG FMHK): 91%
% INHIBITION of ET-1 induced change in DBP, DEPRESSOR (Anesthetized Male Dog [2]; dog HG FMJC): 70%
% INHIBITION of ET-1 induced change in DBP, PRESSOR (Anesthetized Male Dog [2]; dog HG FMJC): 58%
% INHIBITION of ET-1 induced change in IUP, PRESSOR (Anesthetized Male Dog [2]; dog HG FMJC): 94%
CHANGE IN DBP (mmHg) DEPRESSOR (Anesthetized Male Dog [2]; [7]): -4 mmHg
CHANGE IN DBP (mmHg) PRESSOR (Anesthetized Male Dog [2]; [7]): 5 mmHg
CHANGE IN IUP (mmHg) PRESSOR (Anesthetized Male Dog [2]; [7]): 1 mmHg
CHANGE IN DBP (mmHg) DEPRESSOR (Anesthetized Male Dog [2]; [8]): -5 mmHg
CHANGE IN DBP (mmHg) PRESSOR (Anesthetized Male Dog [2]; [8]): 2 mmHg
CHANGE IN IUP (mmHg) PRESSOR (Anesthetized Male Dog [2]; [8]): 1 mmHg
CHANGE IN DBP (mmHg) DEPRESSOR (Anesthetized Male Dog [2]; [9]): -3 mmHg
CHANGE IN DBP (mmHg) PRESSOR (Anesthetized Male Dog [2]; [9]): 8 mmHg
CHANGE IN IUP (mmHg) PRESSOR (Anesthetized Male Dog [2]; [9]): 1 mmHg
hemodynamic and prostatic urethral responses to ET-1 (Anesthetized Male Dog [2]; anesthetized dogs): specifically inhibited
% Inhibition of Control, PE-induced INCREASE IN DBP (Anesthetized Male Dog [1]; [10]): 35%
% Inhibition of Control, PE-induced INCREASE IN IUP (Anesthetized Male Dog [1]; [10]): 13%
Intra-arterial PE-induced increases in DBP and IUP after administration (Anesthetized Male Dog [1]; one dog studied): did not change significantly
inhibition of ET-1 to contract the prostate (rat prostate): specific inhibition
